Columns and labels:
Assay in all cases: relative viability (nuclei count vs DMSO), 5 days (fraction); higher = more cells survive
[1] = compound: CC(C)C[C@H](NC(=O)[C@H](CCc1ccccc1)NC(=O)CN1CCOCC1)C(=O)N[C@@H](Cc1ccccc1)C(=O)N[C@@H](CC(C)C)C(=O)[C@@]1(C)CO1 [Carfilzomib]
Summary of the method: (§1)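 Cells of lung cancer lines were placed in 1536-well plates and kept overnight at 37 °C. Pinning then delivered five library-drug doses (not always all listed), spaced by √10, onto plates anchored with vehicle, and the cells were left 5 days without changing medium. One step fixed, permeabilised and stained them with Hoechst, and MetaXpress counted nuclei in 4× images. Viability, as a median over plates, is treated-well nuclei divided by vehicle-well nuclei, with acceptance only at control CV below 25% and at least one doubling.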

[2] = compound: C[C@@H](Oc1cc(-c2cnn(C3CCNCC3)c2)cnc1N)c1c(Cl)ccc(F)c1Cl [Crizotinib]
Summary of the method: as §1

[3] = compound: O=C(c1cc(Cc2n[nH]c(=O)c3ccccc23)ccc1F)N1CCN(C(=O)C2CC2)CC1 [Olaparib]
Summary of the method: as §1

Cell Line | relative viability ([1]; 0.001 µM) | relative viability ([1]; 0.003162 µM) | relative viability ([1]; 0.01 µM) | relative viability ([1]; 0.03162 µM) | relative viability ([1]; 0.1 µM) | relative viability ([2]; 0.01 µM) | relative viability ([2]; 0.03162 µM) | relative viability ([2]; 0.1 µM) | relative viability ([2]; 0.3162 µM) | relative viability ([2]; 1 µM) | relative viability ([2]; 1 µM, anchor plate) | relative viability ([3]; 0.08 µM) | relative viability ([3]; 0.253 µM) | relative viability ([3]; 2.53 µM) | relative viability ([3]; 8 µM) | relative viability ([3]; 8 µM, anchor plate)
201T | 0.957 | 1.01 | 1.01 | 1.04 | 0.849 | 0.95 | 1 | 0.95 | 1.03 | 1 | 1.01 | 1.01 | 0.888 | 0.922 | 1.01 | 0.835
A549 | 0.967 | 1.03 | 0.954 | 0.525 | 0.043 | 0.963 | 1.03 | 0.948 | 1.04 | 0.987 | 0.755 | 1.13 | 0.875 | 0.898 | 0.681 | 0.361
A-427 | 0.936 | 1.15 | 0.957 | 0.479 | 0.134 | 0.965 | 1.03 | 1.03 | – | 1.01 | 0.906 | 1.09 | 0.945 | 0.884 | 0.782 | 0.713
ABC-1 | 0.92 | 0.75 | 0.39 | 0.221 | 0.291 | 0.845 | 0.885 | 0.995 | 0.878 | 0.982 | 1.18 | 1.15 | 0.882 | 0.863 | 0.932 | 0.847
BEN | 0.902 | 1.09 | 0.944 | 0.843 | 0.433 | 0.867 | 0.974 | 0.886 | 0.807 | 1.02 | 0.86 | 0.948 | 0.775 | 1.01 | 1.03 | 1.06
CAL-12T | 0.933 | 1.19 | 1.1 | 0.736 | 0.138 | 0.917 | 0.973 | 0.974 | 0.837 | 0.981 | 0.683 | 1.21 | 0.966 | 0.976 | 0.888 | 0.706
COR-L23 | 1.06 | 1.13 | 0.846 | 0.0978 | 0.0691 | 1.01 | 1.04 | 0.963 | 0.978 | 0.885 | 0.623 | 1.04 | 1.04 | 0.908 | 0.579 | 0.353
COR-L 105 | 1.06 | 0.931 | 0.962 | 0.318 | 0.26 | 0.844 | 0.938 | 0.901 | 0.847 | 0.932 | 0.826 | 0.896 | 0.87 | 0.763 | 0.785 | 0.697
Calu-6 | 0.992 | 1.09 | 0.92 | 0.306 | 0.11 | 0.986 | 1.03 | – | 0.957 | 1.01 | 0.768 | 1.13 | 0.936 | 0.937 | 0.789 | 0.584
ChaGo-K-1 | 0.884 | 1.05 | 1.01 | 0.864 | 0.304 | 0.977 | – | 0.953 | 0.769 | 0.976 | 1.11 | 1.05 | 0.925 | 0.906 | 0.788 | 0.422
EBC-1 | 1.01 | 1.09 | 0.642 | 0.11 | 0.103 | 0.965 | 1.05 | 0.976 | 0.17 | 0.199 | 0.192 | 1.2 | 0.883 | 0.98 | 0.752 | 0.703
